One assay concerns the target Carbonic anhydrase 14 (Homo sapiens, UniProt Q9ULX7).
Carbonic anhydrase 14, sequence (Q9ULX7 whole entry): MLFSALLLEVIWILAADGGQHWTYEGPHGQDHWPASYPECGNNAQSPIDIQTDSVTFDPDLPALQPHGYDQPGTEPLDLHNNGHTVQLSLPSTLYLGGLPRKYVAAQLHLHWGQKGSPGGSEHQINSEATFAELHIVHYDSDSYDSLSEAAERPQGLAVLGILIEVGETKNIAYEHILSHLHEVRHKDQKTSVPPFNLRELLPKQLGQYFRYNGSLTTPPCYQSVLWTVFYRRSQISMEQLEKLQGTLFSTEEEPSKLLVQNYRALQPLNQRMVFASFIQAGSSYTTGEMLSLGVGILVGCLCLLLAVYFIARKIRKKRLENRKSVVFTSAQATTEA
For `Nc1nnc(S(N)(=O)=O)s1`, the affinity, expressed as Ki, was 280 nM.

On to `Nc1ccc(S(=O)(=O)Nc2nnc(S(N)(=O)=O)s2)cc1`, for which the inhibition constant Ki turned out to be 13 nM.

As for `Nc1nccc(Nc2ccc(S(N)(=O)=O)cc2)n1`, the affinity, expressed as Ki, was 89 nM.

For `Nc1ccccc1S(N)(=O)=O`, the Ki was 6500 nM.

`Nc1ccc(S(N)(=O)=O)cc1Br` displayed an inhibition constant (Ki) of 15 nM.

The compound `Cn1nc(S(N)(=O)=O)sc1=N` had a Ki of 245 nM.

`NS(=O)(=O)c1ccc(CCO)cc1` gave a Ki of 3260 nM.

Compound `Nc1cccc(S(N)(=O)=O)c1` gave a Ki of 4800 nM.

The compound `Nc1ccc(S(N)(=O)=O)cc1F` registered an inhibitory constant (Ki) of 180 nM.

The compound `NS(=O)(=O)c1ccc(CO)cc1` registered a Ki of 3840 nM.

Turning to `Nc1ccc(S(N)(=O)=O)cc1Cl`, the affinity, expressed as Ki, was 21 nM.

`Nc1ccc(S(=O)(=O)NCCc2ccc(S(N)(=O)=O)cc2)cc1` gave a Ki of 76 nM.

The compound `NNc1ccc(S(N)(=O)=O)cc1` yielded a Ki of 1450 nM.

Consider `CCN[C@H]1CN(CCCOC)S(=O)(=O)c2sc(S(N)(=O)=O)cc21` [BRINZOLAMIDE], for which the affinity corresponds to a Ki of 24 nM. This Ki is about 60-fold lower than that of the compound before.

`NS(=O)(=O)c1ccc(C(=O)O)cc1` [CARZENIDE] registered a Ki of 780 nM. Against the preceding compound, the Ki is about 32-fold higher.

Consider `NCc1ccc(S(N)(=O)=O)cc1` [MAFENIDE], for which the Ki was 3200 nM.

In the case of `Nc1ccc(S(N)(=O)=O)cc1` [SULFANILAMIDE], the Ki is 5400 nM.

For the next assay, the target named is Carbonic anhydrase 12 (Homo sapiens, UniProt O43570).
Carbonic anhydrase 12, sequence (O43570 whole entry): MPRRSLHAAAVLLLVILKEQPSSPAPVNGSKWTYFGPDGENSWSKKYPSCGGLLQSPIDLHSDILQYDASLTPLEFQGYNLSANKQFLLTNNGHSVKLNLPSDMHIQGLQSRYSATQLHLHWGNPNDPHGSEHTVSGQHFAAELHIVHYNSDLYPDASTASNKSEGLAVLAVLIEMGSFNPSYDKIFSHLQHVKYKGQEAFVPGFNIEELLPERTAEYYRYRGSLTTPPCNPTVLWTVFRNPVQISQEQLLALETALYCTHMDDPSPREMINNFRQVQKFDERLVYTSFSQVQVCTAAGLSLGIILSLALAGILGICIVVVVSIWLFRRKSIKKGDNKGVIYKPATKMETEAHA
Turning to `Nc1ccccc1S(N)(=O)=O`, affinity was put at a Ki of 85 nM.

The compound `Nc1cccc(S(N)(=O)=O)c1` came in with an inhibition constant (Ki) of 125 nM.

As for `NNc1ccc(S(N)(=O)=O)cc1`, the Ki amounted to 11 nM.

Values taken from ChEMBL document CHEMBL1142790, “Carbonic anhydrase inhibitors: inhibition of the transmembrane isozyme XIV with sulfonamides” (Bioorg Med Chem Lett, 2005).
